# Molecular target: T1, PA2652-LBD (Pseudomonas aeruginosa, UniProt Q9I0I6)
# T1 construct: The DNA fragment encoding the LBD of PA2652 (Lys^34–Thr^205) was amplified; His-tag (vector-encoded by pET28b(+) via NdeI site); made in house; host or cells: Escherichia coli BL21 (DE3)
# Test: ITC titration with L-malic acid in absence and presence of antagonists (competition)
# Assay type: binding, Pseudomonas aeruginosa PAO1
# Text: In order to understand the mechanistic role of these antagonistics in the chemotaxis behaviour of P. aeruginosa, we first carried out ITC binding studies. In these assays, we measured the affinity of L-malic acid for PA2652-LBD in the presence of different concentrations of citraconic and D,L-methylsuccinic acids. […] Considering the close structural similarity of antagonists and L-malic acid (Fig. 3) it is likely that these compounds compete for binding at the same site at PA2652.
# Figure 7 Attractants and antagonists compete for binding at PA2652-LBD in vitro. Isothermal titration calorimetry analysis of the binding of L-malic acid to PA2652-LBD in the absence and presence of 2 or 20 mM of the antagonists, citraconic and D,L-methylsuccinic acids. Upper panel: Titration raw data for the injection of 9.6 μl aliquots of 1 mM of L-malic acid into 20 μM of protein in the absence and presence of antagonists (present both in the injector syringe and sample cell). Lower panel: Integrated, dilution heat corrected and concentration normalized peak areas fitted with the “One binding site” model of ORIGIN. The apparent binding constants are listed in Supplementary Table S2.
# Experiments were conducted on a VP-microcalorimeter (Microcal, Amherst, MA, USA) at 20 °C. PA2652-LBD was dialyzed overnight against TNG buffer, adjusted to a concentration of 20–35 μM and placed into the sample cell of the instrument. The protein was titrated by the injection of 9.6–14.4 μl aliquots of 1–20 mM ligand solutions that were prepared in TNG buffer (20 mM Tris/HCl, 150 mM NaCl, 10% (v/v) glycerol, pH 6.8) immediately before use. The mean enthalpies measured from the injection of ligands into buffer were subtracted from raw titration data prior to data analysis with the MicroCal version of ORIGIN. Data were fitted with the “One binding site model”.
# [1] = L-malic acid titration in presence of 2 mM D,L-methylsuccinic acid
# [2] = L-malic acid titration in presence of 2 mM citraconic acid
# [3] = L-malic acid titration in presence of 20 mM D,L-methylsuccinic acid
# [4] = L-malic acid titration in presence of 20 mM citraconic acid
# [5] = L-malic acid titration, no antagonist
# T1 sequence (Q9I0I6 34-205): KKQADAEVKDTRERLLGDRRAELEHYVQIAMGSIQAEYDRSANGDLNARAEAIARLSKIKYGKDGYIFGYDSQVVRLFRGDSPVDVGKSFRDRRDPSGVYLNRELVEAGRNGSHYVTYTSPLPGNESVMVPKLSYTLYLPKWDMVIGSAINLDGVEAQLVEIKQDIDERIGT
smiles,measurement,setting,value
O=C(O)C[C@H](O)C(=O)O [L-malic acid],Kd,,23 ± 1 µM
same,n (apparent),[1],0.6 ± 0.1
same,∆H (apparent),[1],-6.7 ± 1 kcal/mol
same,n (apparent),[2],0.9 ± 0.2
same,∆H (apparent),[2],-5.1 ± 1 kcal/mol
same,n (apparent),[3],1.1 ± 0.9
same,∆H (apparent),[3],-2.6 ± 2 kcal/mol
same,n (apparent),[4],1.1 ± 1
same,∆H (apparent),[4],-3.3 ± 5 kcal/mol
same,n (apparent),[5],1 ± 0.1
same,∆H (apparent),[5],-4.1 ± 0.6 kcal/mol
same,Change of apparent affinity of L-malic acid,antagonists increased to 20 mM,further reduction in the apparent affinity
same,Change of apparent affinity of L-malic acid,"in the presence of 2 mM antagonists (citraconic or D,L-methylsuccinic acid)",decreased approximately by a factor of two
